Columns and labels:
[1] = tested on: BM CD34+-derived cells; assay: Micropipette aspiration of CD34+-derived cells; assay type: cell-based, human
Protocol: Cells from BMCD34^+, cultured in SCF and Tpo between 3 and 8 days, were treated with 20 μM blebbistatin for 30 min to 1 h, followed by micropipette analysis. Capillary tubes of 1.0-mm inner diameter (World Precision Instruments) were pulled into micropipettes using a Flaming-Brown Micropipette Puller (Sutter Instrument) and cut further using a deFonbrune-type microforge (Vibratome). The average micropipette diameter was around 3 μm. Micropipettes were attached to a dual-stage water manometer with reservoirs of adjustable height. Suction was applied by a syringe, and the corresponding pressure was measured by pressure transducer (Validyne), calibrated by a mercury U-tube manometer. Pressures for different experiments ranged from 0.5 to 20 kPa. In some cases, cells were labeled with a very low dose (10 nM) of fluorescent BODIPY-Taxol (Invitrogen) for 1 h at 37° C. to visualize the initial stage of microtubule polymerization during micropipette aspiration.

[2] = tested on: SCID-repopulating cells in NSG mice; assay: Engraftment in NSG mice and limiting dilution analysis; details: mouse, in vivo
Protocol: BM-derived CD34^+ cells were cultured in SCF and Tpo (100 ng/ml each) for 4 days and treated under control conditions or Bleb (20 μM) for 3 days. The cells were injected intra-tibially into sub-lethally irradiated (250 rads) 6-10-week-old NSG mice within 24 hr after irradiation. Engraftment was assessed by analysis of blood or bone marrow using anti-mouse and anti-human CD47 antibodies using flow cytometry. The mice were sacrificed after sixteen weeks post-transplantation. For secondary engraftment, 50% of the bone marrow from femurs and tibias from each mouse was transplanted into one sub-lethally irradiated NSG mouse. 16 weeks after transplantation, blood and bone marrow were harvested from the mice and analyzed by flow cytometry. All animal experiments were done in accordance with institutional guidelines approved by the ethical committee from the University of Pennsylvania. The human repopulation HSC frequency was quantified by extreme limiting dilution analysis (ELDA) software (Hu and Smyth, 2009)

[3] = target: T1, αIIbβ3 (Homo sapiens, UniProt P05106+P08514); assay: Platelet activation assay, PAC-1 binding; assay type: cell-based; details: thrombin 1 U/mL
T1 construct: endogenous in cells; host or cells: platelet-like fragments from megakaryocytes cultured from human bone-marrow CD34+ cells
T1 sequence (P08514 32-887 limits assumed): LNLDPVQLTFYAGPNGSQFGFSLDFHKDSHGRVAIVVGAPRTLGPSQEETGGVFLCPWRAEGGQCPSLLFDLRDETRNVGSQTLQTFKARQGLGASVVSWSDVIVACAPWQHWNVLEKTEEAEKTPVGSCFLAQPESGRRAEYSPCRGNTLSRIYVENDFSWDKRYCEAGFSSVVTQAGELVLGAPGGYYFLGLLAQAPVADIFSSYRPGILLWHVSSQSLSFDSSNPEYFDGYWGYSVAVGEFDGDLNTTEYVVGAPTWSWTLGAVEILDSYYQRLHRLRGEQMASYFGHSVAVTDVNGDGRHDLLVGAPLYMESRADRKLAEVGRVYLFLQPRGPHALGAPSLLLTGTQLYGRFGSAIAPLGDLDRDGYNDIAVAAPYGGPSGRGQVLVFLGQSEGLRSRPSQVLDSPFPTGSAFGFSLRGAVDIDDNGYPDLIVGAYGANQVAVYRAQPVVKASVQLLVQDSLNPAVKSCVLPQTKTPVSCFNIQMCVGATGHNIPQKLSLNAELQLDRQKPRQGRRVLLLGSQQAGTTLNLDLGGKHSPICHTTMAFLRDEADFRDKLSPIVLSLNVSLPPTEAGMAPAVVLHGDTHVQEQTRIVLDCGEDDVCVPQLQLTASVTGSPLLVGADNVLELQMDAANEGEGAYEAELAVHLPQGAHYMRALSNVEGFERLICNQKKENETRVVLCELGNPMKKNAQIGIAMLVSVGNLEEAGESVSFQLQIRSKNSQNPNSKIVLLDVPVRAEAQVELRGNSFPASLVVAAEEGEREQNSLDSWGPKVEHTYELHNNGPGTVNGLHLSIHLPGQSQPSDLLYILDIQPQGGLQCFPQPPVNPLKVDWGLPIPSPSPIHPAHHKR
T1 sequence (P08514 891-1039 partner limits assumed): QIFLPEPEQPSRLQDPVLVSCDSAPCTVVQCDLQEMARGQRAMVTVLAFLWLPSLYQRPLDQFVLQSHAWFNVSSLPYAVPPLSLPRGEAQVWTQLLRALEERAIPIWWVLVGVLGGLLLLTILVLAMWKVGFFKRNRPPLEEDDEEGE
T1 sequence (P05106 27-788): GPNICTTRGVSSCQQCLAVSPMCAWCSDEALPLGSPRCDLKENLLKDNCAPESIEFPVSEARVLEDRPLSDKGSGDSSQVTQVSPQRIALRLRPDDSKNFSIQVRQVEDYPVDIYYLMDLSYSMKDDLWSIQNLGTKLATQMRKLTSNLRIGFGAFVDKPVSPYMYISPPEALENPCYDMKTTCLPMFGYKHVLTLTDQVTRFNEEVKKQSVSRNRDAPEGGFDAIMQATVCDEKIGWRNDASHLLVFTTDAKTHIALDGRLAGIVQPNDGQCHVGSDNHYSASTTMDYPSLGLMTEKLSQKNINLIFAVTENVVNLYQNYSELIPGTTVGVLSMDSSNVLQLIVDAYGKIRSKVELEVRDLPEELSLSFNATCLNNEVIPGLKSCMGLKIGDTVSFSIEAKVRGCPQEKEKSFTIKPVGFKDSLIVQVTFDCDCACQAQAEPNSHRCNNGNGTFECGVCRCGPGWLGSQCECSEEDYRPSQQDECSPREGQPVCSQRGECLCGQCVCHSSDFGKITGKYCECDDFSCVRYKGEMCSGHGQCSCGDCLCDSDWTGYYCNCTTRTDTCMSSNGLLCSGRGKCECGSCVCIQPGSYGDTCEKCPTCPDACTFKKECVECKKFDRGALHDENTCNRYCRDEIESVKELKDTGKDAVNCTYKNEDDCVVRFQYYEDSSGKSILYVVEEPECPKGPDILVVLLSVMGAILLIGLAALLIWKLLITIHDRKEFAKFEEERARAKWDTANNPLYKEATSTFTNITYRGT
Protocol: For platelet-activation assays, platelet-sided fraction isolated from either MK culture or NSG blood was resuspended in Tyrode's buffer supplemented with Mg^2+ and Ca^2+, and incubated with indicated agonists for 15 min at 37° C., followed by staining with FITC-conjugated anti-human P-selectin or PAC-1 antibody (BD Bioscience), APC-conjugated anti-human CD41, and in the case of xenograft samples, PE-conjugated anti-mouse CD41 for 15 min at room temperature, followed by fixation with 1.5% paraformaldehyde. Antibody-stained samples were then analyzed by flow cytometry. Platelet number was evaluated by mixing each sample with a defined number (˜10,000 beads per sample) of APC-conjugated beads (BD Bioscience). The number of platelets per sample was evaluated by: number of CD41^+ events/number of APC-bead events multiplied by total known number of APC-bead added per sample.

[4] = tested on: CD34+-derived cells; assay: DNA microarray transcriptional profiling; assay type: cell-based, human
Protocol: Total RNA was extracted from cells using trizol and isolated by RNeasy (Qiagen) according to manufacturer's protocol. Total RNA was amplified and converted to cDNA using WT-Ovation Pico kit (NuGen) and converted to ST-cDNA, fragmented and biotinfunctionalized using WT-Ovation Exon Mudule (NuGen). Hybridization cocktails were prepared at 45.4, 15.1 and 7.6 ng/μl ST-cDNA and mixed with Eukaryotic Hybridization Controls (GeneChip) at proportional concentrations. Each sample was interrogated by sequential hybridization, rinse and scan cycles on a single Human Gene 1.0 ST DNA microarray (Affymetrix), from low to high concentration, and followed by two rinse-scan cycles in which no sample was added. In each experiment the scanned intensities that were obtained from all samples, five scans per array, were mutually RMA-summarized to transcription clusters gene levels. Log-base-2 fold changes were calculated for each scan separately relative to the mean Bleb-treated and non-treated CD34^+ and CD34^− intensities, gene by gene, and the average and standard deviation values (SD) were calculated across scans. Heat maps of selected genes summarize data from technical and biological replica. Average gene-expression fold changes±STD of HSC, MPP and CPP samples are shown in white. Log-base-2 fold changes of Bleb-treated and non-treated CD34^+ and CD34^− were averaged from two biologically independent experiments and are shown±SD. The particular fold-changes are color coded on a logarithmic scale that is defined per each heat map. Color-coded gene symbols represent the absolute gene expression levels of the biologically-replicated averages of CD34^+ non-treated intensities. Gene expression levels are coded <=5 (green) to >=10 (red) on a log-base-2 scale. Samples and genes were clustered by Pearson Correlation (MeV). Dendograms represent the correlative proximity of log-base-2 gene expression fold changes. Mean gene expression levels were calculated by averaging across five array scans. Log-base-2 gene expression fold changes were calculated relative to the mean Bleb-treated and non-treated CD34^+ and CD34^− intensities, gene by gene.

[5] = tested on: BM CD34+-derived cells; assay: Live cell imaging of cell division; assay type: cell-based, human
Protocol: At least 20,000 BM CD34^+-derived cells were put into Ibidi μ-slide VI (Ibidi GmbH) in cell culture medium. Analysis was done in an insulated chamber maintained at 37° C., 5% CO2. A series of images were collected every 5 min for 18 to ˜24 h with an Olympus IX70 inverted microscope with 300 W Xenon lamp illumination using 10× or 20× objectives under bright field. Image stacks were further analyzed by ImageJ to analyze cell division with or without blebbistatin treatment.

PAC-1 binding of platelets derived from drug-exposed MKs [3]: normal PAC-1 binding
Structure (SMILES): Cc1ccc2c(c1)C(=O)C1(O)CCN(c3ccccc3)C1=N2 (racemic) [blebbistatin, (±)-blebbistatin]
median fragmentation threshold (effective membrane tension) ([1]; 20 μM): ~1 mN/m
compliance, median slope of aspiration length vs tension ([1]; 20 μM, unfragmented cells): 3.79±0.84 (mN/m)^−1
increase in compliance ([1]; after 30 min): approximately four
treated cells that fragment ([1]; after 30 min): 40%
increase in HSC frequency in terms of total cell number injected [2]: 4 fold
NMM-IIA mRNA lower in drug-treated CD34+ cells [4]: ~30%
reduction of cyclin D1 and D3 (CCND1 and 3) expression [4]: 2 fold
SCF receptor (KIT) expression vs untreated CD34+ cells ([4]; treated CD34+ cells): 1.8 fold
upregulation of CD133 (PROM1) and CD34 above pooled average ([4]; treated CD34+ cells in culture): more than 2 fold
cells showing reversal of cytokinesis [5]: ~80%
